Data on one molecule can be found in ChEMBL document CHEMBL3621096, “Discovery of Potent and Selective Inhibitors for ADAMTS-4 through DNA-Encoded Library Technology (ELT)” (ACS Med Chem Lett, 2015).

One assay addresses Collagenase 3 (Homo sapiens, UniProt P45452). Put plainly: Inhibition of human recombinant MMP13 using 5-FAMTPGPLGL[Dap(DNP)]ARRK(5-TAMRA)-amide as substrate after 45 mins.
The target in assay [1] is Disintegrin and metalloproteinase domain-containing protein 17 (Homo sapiens, UniProt P78536). Put plainly: Inhibition of human recombinant TACE using Mca-PLAQAV-Dpa-RSSSR-NH2 as substrate preincubated for 15 mins measured every 30 secs for 30 mins by fluorescence assay.
Sequence of Disintegrin and metalloproteinase domain-containing protein 17 (P78536 whole entry, the tested form may be a part): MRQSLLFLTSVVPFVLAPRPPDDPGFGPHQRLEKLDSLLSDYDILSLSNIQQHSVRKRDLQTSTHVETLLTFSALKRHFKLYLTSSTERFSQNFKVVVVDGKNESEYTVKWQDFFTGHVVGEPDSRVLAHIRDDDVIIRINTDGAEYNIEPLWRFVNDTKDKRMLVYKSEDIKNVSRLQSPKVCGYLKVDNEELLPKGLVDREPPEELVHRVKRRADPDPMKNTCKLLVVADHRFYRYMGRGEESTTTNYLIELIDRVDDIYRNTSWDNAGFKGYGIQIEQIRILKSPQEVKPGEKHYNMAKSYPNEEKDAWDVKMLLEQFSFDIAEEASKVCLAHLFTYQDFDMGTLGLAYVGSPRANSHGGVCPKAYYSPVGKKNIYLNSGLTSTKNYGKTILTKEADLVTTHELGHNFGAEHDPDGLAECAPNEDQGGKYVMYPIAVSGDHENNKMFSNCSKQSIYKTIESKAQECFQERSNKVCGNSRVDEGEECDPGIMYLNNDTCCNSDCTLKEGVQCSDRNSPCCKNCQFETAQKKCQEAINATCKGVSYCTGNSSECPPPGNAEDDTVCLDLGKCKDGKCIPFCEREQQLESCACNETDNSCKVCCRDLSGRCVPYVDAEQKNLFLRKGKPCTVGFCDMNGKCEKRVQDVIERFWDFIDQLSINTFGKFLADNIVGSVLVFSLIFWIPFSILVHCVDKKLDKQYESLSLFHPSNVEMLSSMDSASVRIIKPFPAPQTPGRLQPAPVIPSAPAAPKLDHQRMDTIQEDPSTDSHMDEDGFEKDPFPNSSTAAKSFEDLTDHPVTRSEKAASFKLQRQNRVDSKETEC
Assay [2] has as its target T1, A disintegrin and metalloproteinase with thrombospondin motifs 13 (Homo sapiens, UniProt Q76LX8).
T1 sequence (Q76LX8 whole entry): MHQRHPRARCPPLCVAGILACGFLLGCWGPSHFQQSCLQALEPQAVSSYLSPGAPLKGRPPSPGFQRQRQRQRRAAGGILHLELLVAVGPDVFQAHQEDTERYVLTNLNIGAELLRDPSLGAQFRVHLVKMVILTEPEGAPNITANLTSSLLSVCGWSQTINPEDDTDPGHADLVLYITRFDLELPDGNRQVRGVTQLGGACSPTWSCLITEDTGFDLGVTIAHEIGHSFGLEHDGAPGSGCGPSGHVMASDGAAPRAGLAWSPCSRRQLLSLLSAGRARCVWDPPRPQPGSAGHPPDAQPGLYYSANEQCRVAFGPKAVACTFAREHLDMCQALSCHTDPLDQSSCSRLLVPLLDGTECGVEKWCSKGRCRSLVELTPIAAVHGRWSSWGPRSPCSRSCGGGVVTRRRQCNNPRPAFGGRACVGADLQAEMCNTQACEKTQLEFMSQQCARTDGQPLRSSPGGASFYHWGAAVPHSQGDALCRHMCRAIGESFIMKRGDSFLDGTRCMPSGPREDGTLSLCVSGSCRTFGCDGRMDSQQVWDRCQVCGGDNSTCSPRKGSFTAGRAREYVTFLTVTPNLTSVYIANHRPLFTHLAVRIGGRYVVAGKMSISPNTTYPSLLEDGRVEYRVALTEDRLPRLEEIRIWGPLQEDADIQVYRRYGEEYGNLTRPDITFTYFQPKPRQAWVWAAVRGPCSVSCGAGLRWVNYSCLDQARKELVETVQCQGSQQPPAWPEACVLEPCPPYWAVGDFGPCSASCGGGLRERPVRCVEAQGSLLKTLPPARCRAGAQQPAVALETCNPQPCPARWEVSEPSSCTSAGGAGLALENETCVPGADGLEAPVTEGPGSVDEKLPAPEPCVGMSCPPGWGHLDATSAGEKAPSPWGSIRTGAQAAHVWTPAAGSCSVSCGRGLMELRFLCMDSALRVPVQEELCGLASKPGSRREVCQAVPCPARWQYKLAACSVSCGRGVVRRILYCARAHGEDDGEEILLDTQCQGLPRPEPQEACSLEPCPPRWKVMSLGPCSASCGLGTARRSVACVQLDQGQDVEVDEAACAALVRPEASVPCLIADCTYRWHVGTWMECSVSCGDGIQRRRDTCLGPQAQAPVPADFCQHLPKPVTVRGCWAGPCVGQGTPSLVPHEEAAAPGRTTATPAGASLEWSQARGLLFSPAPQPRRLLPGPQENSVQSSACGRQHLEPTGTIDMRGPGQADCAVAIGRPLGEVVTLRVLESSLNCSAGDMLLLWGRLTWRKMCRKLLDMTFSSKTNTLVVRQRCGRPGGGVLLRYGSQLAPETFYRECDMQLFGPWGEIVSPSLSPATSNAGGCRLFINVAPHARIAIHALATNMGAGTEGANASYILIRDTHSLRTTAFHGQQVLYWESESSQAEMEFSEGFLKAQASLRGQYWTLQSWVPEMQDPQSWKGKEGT
Put plainly: Inhibition of human recombinant ADAMTS13 using FRETSVWF73 as substrate by fluorescence assay.

In assay [3] the target is T2, A disintegrin and metalloproteinase with thrombospondin motifs 5 (Homo sapiens) (UniProt Q9UNA0).
T2 sequence (whole entry): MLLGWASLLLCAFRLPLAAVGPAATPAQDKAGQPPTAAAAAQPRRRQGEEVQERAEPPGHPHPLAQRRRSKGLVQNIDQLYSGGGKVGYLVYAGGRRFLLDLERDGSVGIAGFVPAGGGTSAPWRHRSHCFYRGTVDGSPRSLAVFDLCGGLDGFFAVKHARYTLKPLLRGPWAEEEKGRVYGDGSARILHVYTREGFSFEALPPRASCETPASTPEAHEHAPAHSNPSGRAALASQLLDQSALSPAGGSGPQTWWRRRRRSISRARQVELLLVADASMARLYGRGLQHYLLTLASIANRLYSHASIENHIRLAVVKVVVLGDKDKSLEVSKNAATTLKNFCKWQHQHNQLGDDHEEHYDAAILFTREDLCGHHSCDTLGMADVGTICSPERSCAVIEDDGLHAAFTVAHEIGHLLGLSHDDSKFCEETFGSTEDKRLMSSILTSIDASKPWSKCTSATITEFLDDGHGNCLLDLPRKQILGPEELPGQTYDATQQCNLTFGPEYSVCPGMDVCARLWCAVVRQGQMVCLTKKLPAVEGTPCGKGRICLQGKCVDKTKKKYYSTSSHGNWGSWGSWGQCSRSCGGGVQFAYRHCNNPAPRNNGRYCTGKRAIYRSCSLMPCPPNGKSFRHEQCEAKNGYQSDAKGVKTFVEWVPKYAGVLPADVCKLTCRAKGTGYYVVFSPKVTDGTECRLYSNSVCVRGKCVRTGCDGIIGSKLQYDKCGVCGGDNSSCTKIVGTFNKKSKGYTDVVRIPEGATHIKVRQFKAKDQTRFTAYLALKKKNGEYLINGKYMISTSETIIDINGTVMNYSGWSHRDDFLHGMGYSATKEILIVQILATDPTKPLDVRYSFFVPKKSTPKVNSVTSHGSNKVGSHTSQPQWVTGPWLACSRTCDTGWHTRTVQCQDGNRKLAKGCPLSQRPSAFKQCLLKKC
Put plainly: Inhibition of ADAMTS5 (unknown origin) using WAAG-3R as substrate at 10 uM preincubated for 15 mins followed by substrate addition measured every 30 secs for 1 hr relative to control.

Assay [4] has as its target T3, A disintegrin and metalloproteinase with thrombospondin motifs 4 (Homo sapiens, UniProt O75173).
T3 sequence (O75173 whole entry): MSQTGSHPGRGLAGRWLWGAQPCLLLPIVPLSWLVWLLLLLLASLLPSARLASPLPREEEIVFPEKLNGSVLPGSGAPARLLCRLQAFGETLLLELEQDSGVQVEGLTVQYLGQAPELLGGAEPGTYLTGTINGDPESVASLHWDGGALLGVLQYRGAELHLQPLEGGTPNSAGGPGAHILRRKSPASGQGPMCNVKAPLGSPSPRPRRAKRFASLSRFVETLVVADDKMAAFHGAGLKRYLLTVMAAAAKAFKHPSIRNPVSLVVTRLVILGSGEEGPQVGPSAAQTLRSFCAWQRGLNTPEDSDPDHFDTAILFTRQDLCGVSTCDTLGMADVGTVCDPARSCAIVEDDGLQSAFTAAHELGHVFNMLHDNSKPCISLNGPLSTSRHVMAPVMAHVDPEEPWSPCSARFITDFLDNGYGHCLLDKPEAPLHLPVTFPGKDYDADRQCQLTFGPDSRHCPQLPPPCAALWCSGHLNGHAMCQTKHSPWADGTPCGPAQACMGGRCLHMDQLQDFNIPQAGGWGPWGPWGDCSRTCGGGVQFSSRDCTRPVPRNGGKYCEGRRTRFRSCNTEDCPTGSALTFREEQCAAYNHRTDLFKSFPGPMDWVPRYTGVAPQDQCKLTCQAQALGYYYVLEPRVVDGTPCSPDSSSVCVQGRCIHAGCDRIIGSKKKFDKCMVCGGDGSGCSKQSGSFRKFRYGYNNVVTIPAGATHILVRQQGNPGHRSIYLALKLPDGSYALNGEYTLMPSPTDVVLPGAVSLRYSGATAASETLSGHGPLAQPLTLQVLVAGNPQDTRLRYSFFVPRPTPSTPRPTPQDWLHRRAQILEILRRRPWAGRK
Put plainly: Inhibition of recombinant human ADAMTS4 (213 to 575 amino acid residues) using WAAG-3R as substrate preincubated for 15 mins followed by substrate addition measured every 30 secs for 1 hr.

The target in assay [5] is T4, A disintegrin and metalloproteinase with thrombospondin motifs 5 (Homo sapiens, UniProt Q9UNA0).
T4 sequence (Q9UNA0 whole entry): T2 sequence (whole entry)
Put plainly: Inhibition of ADAMTS5 (unknown origin) using WAAG-3R as substrate preincubated for 15 mins followed by substrate addition measured every 30 secs for 1 hr.

The structures appear in SMILES notation.

Take `CCN(C(=O)c1ccc(CNc2nc(NCCN3CCN(C)CC3)nc(N3CCc4cc(OC)c(OC)cc4C3)n2)cc1)c1cccc(C)c1`: the IC50 is more than 10 µM at Collagenase 3; more than 10 µM in assay [1]; more than 10 µM in assay [2]; 0.01 µM in assay [4]; more than 10 µM in assay [5]. This molecule also yielded an inhibition in assay [3] of 30%.

Broadly, the IC50 is the midpoint of a concentration-inhibition curve. A word on the inhibition: it is the share of the control response that was lost under treatment. Higher therefore signals a response far below the control.
